# Measurements taken from ChEMBL document CHEMBL1135371, “Synthesis and pharmacology of isoquinuclidine derivatives as 5-HT(3) ligands” (Bioorg Med Chem Lett, 2002).
# Columns and labels:
# [1] = target: T1, 5-hydroxytryptamine receptor 4 (Cavia porcellus, UniProt O70528); test: Binding affinity towards 5-HT4 receptor in striatum membranes of guinea-pig brain was evaluated; assay type: cell membranes, Membrane
# D(2) dopamine receptor [2] = target: T2, D(2) dopamine receptor (Rattus norvegicus, UniProt P61169); test: Binding affinity towards D2 receptor in rat was evaluated
# [3] = target: T3, Serotonin 3 (5-HT3) receptor (Rattus norvegicus, UniProt P35563+Q9JJ16); test: Binding affinity towards 5-HT3 receptor in rat was evaluated
# T3 sequence (P35563 whole entry): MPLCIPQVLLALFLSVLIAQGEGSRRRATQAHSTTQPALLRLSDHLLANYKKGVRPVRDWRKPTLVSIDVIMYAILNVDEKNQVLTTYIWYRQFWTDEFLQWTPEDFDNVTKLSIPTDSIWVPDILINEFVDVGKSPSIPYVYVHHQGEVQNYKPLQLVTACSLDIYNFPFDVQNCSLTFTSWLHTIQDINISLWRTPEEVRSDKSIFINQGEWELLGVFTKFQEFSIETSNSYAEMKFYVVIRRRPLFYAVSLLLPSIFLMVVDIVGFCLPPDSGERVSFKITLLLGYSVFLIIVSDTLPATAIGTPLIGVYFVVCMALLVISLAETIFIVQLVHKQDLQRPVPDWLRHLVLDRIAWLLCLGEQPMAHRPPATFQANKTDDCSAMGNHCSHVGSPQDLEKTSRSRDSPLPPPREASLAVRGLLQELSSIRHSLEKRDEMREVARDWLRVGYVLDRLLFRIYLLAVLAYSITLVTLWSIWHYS
# T3 sequence (Q9JJ16 whole entry): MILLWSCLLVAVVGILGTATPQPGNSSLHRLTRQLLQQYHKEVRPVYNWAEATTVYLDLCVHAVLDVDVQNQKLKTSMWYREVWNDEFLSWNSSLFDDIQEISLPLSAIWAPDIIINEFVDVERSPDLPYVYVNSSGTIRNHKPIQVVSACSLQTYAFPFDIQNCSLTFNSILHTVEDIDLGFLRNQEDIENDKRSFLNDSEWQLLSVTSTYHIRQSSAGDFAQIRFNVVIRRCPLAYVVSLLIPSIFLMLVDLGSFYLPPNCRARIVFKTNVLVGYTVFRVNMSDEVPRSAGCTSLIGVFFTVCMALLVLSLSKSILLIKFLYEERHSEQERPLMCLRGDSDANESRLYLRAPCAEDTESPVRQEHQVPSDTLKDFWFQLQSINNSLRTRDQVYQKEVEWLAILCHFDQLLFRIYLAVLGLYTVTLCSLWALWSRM
# D(2) dopamine receptor [4] = target: T2, D(2) dopamine receptor; test: Binding affinity towards Dopamine receptor D2 in rat was evaluated
# [5] = target: T1, 5-hydroxytryptamine receptor 4; test: Binding affinity towards 5-hydroxytryptamine 4 receptor in striatum membranes of guinea-pig brain was evaluated; assay type: cell membranes, Membrane
# [6] = target: T3, Serotonin 3 (5-HT3) receptor; test: Binding affinity towards rat 5-hydroxytryptamine 3 receptor was evaluated; assay type: protein-complex assay
# T1 sequence (O70528 whole entry): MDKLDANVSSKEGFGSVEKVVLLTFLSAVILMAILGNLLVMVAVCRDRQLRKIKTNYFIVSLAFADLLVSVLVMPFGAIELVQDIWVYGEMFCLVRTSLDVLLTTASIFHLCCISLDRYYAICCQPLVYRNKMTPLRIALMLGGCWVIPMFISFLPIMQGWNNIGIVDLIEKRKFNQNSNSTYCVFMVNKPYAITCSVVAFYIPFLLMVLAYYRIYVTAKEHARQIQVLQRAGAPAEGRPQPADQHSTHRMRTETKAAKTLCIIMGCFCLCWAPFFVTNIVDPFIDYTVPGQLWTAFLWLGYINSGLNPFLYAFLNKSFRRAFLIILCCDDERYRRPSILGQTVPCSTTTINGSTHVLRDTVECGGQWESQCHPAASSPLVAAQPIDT
# T2 sequence (P61169 whole entry): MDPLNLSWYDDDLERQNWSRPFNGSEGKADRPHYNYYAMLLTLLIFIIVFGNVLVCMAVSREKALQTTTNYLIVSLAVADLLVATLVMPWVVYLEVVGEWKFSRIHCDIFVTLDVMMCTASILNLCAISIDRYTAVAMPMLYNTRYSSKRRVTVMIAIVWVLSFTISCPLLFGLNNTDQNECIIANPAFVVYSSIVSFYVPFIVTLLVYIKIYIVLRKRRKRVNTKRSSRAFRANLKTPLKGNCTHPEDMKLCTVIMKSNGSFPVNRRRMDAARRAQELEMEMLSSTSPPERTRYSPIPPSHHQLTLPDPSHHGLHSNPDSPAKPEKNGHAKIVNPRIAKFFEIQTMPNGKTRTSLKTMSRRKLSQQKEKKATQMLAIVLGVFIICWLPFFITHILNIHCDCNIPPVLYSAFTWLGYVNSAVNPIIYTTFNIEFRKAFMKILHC
IC50 [1],IC50 [3],IC50 (D(2) dopamine receptor [4]),Ki [3],IC50 [5],IC50 (D(2) dopamine receptor [2]),Compound,further results
1000 nM,1000 nM,–,–,–,–,COc1cc(N)c(Cl)cc1C(=O)NC1CC2CCC1CN2C (stereo in doubt; syn),Ki (D(2) dopamine receptor [2]): 842 nM
–,–,> 1000 nM,5.19 nM,–,–,COc1cc(N)c(Cl)cc1C(=O)OC1CC2CCC1CN2C (stereo in doubt; anti),Ki [5]: 82.6 nM
–,–,> 1000 nM,13.8 nM,> 1000 nM,–,COc1cc(N)c(Cl)cc1C(=O)OC1CC2CCC1N(C)C2 (stereo in doubt; anti),–
> 1000 nM,–,–,192 nM,–,> 1000 nM,COc1cc(N)c(Cl)cc1C(=O)OC1CC2CCC1N(C)C2 (stereo in doubt; syn),–
> 1000 nM,–,–,–,–,> 1000 nM,CN1C2CCCC1CC(NC(=O)c1nn(C)c3ccccc13)C2 (centres undefined) [GRANISETRON],–
–,17300 nM,–,–,> 1000 nM,–,COc1cc(N)c(Cl)cc1C(=O)NC1CC2CCC1CN2C (stereo in doubt; anti),Ki (D(2) dopamine receptor [4]): 130 nM
–,–,–,11.2 nM,–,> 1000 nM,COc1cc(N)c(Cl)cc1C(=O)OC1CC2CCC1CN2C (stereo in doubt; syn),Ki [1]: 240 nM
–,–,> 1000 nM,–,–,–,CN1[C@@H]2CC[C@H]1C[C@@H](OC(=O)c1c[nH]c3ccccc13)C2 [TROPISETRON],Ki [6]: 1.55 nM; Ki [5]: 125 nM

Compound,IC50 [1],IC50 [3],IC50 (D(2) dopamine receptor [4]),Ki [3],IC50 [5],IC50 (D(2) dopamine receptor [2]),further results
COc1cc(N)c(Cl)cc1C(=O)NC1CC2CCC1N(C)C2 (centres undefined),> 1000 nM,> 1000 nM,> 1000 nM,327 nM,1000 nM,1000 nM,–
